Laboratory results from article PMC3602154 (PLoS ONE, 2013).

Experiments:
5-HT1B = 5-HT1B (Homo sapiens, UniProt P28222); assay: PDSP radioligand binding, serotonin receptor 5-HT1B
Description: (§1) [17] and http://pdsp.med.unc.edu/UNC-CH%20Protocol%20Book.pdf.

5-ht5a = 5-ht5a (Homo sapiens, UniProt P47898); assay: PDSP radioligand binding, serotonin receptor 5-HT5
Description: as §1

A2B2 = A2B2 (Rattus norvegicus, UniProt P12389+P12390); assay: PDSP radioligand binding, nicotinic receptor α2 ß2
Sequence of A2B2 (P12389 28-511): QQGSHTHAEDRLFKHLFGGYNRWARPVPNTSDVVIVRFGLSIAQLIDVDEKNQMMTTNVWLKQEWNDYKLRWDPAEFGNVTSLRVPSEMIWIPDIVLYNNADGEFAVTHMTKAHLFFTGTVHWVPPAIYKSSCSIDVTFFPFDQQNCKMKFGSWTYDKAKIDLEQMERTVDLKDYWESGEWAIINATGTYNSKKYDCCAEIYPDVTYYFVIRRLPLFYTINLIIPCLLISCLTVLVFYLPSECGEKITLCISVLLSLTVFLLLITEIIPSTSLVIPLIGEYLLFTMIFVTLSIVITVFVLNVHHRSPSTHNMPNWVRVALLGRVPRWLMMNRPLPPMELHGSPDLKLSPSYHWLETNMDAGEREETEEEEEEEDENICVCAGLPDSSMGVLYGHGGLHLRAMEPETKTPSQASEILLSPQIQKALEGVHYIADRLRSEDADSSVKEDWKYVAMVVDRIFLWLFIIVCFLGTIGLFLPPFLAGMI
Sequence of A2B2 (P12390 25-500): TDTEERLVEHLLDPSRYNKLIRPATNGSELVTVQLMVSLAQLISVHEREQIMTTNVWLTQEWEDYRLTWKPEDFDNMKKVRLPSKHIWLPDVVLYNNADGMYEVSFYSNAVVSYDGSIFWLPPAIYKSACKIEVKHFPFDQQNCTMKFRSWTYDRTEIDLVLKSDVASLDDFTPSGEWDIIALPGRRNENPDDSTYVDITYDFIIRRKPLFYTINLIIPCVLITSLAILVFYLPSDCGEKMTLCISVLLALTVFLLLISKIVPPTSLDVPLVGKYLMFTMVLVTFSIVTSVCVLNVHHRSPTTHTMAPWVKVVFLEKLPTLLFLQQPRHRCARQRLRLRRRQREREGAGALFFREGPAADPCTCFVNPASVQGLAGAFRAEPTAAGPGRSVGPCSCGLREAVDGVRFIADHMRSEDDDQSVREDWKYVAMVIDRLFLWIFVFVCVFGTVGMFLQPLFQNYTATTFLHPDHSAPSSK
Description: as §1

A3B4 = A3B4 (Rattus norvegicus, UniProt P04757+P12392); assay: PDSP radioligand binding, nicotinic receptor α3 ß4
Sequence of A3B4 (P04757 26-499): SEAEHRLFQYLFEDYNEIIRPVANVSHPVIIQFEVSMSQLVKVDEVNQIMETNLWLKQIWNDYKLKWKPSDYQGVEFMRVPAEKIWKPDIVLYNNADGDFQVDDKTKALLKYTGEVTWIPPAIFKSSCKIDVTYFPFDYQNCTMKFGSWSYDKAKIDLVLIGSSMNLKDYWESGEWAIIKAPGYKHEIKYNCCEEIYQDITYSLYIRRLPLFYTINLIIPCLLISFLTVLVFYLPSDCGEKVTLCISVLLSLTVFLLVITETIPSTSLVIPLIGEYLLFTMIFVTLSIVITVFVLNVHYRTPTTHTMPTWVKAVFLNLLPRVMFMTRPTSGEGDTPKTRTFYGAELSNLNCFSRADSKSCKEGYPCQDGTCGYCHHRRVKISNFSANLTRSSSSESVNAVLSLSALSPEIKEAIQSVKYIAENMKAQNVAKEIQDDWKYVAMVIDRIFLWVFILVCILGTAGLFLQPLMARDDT
Sequence of A3B4 (P12392 21-495): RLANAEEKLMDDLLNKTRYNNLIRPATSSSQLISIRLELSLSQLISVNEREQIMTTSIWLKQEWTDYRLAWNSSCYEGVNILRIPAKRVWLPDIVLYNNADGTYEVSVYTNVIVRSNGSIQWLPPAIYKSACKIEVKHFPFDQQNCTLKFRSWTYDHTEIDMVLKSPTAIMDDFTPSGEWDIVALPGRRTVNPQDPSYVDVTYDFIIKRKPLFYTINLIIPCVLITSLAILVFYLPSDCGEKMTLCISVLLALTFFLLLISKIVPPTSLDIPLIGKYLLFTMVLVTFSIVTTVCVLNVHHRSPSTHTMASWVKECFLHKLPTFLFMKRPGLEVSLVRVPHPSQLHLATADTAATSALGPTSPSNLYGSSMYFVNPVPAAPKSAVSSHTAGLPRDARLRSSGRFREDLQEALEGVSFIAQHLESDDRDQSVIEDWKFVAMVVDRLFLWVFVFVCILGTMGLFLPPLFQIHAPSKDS
Description: as §1

Alpha1B = molecular target: T1, Alpha1B (Homo sapiens, UniProt P35368); assay: PDSP radioligand binding, adrenoceptor α1B
T1 sequence (P35368 1-520): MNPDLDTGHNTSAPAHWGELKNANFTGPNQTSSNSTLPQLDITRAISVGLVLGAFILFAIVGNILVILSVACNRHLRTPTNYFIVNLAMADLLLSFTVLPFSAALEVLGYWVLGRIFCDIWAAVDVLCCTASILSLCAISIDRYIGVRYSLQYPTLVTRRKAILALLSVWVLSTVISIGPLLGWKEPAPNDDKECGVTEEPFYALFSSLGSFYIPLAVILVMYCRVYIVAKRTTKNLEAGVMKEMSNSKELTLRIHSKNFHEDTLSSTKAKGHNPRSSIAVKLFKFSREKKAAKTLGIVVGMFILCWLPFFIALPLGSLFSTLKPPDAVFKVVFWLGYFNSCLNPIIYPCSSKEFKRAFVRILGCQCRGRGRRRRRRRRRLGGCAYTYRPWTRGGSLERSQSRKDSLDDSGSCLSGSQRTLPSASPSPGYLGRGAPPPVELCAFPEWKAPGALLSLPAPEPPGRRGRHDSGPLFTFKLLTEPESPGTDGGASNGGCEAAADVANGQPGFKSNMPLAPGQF
Description: as §1

Alpha2A = molecular target: T2, Alpha2A (Homo sapiens, UniProt P08913); assay: PDSP radioligand binding, adrenoceptor α2A
T2 sequence (P08913 1-465): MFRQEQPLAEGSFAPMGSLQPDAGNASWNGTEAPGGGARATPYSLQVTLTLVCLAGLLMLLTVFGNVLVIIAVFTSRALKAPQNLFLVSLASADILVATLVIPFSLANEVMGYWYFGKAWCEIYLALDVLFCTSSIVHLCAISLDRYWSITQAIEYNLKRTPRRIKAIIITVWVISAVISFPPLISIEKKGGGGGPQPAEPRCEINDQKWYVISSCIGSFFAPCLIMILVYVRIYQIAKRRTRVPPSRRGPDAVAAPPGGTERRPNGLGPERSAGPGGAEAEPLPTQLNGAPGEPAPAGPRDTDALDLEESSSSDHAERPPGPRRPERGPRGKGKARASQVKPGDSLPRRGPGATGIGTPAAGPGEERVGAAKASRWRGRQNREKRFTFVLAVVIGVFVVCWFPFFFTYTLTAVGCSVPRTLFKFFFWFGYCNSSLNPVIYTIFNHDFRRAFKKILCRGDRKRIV
Description: as §1

Alpha2C = molecular target: T3, Alpha2C (Homo sapiens, UniProt P18825); assay: PDSP radioligand binding, adrenoceptor α2C
T3 sequence (P18825 1-462): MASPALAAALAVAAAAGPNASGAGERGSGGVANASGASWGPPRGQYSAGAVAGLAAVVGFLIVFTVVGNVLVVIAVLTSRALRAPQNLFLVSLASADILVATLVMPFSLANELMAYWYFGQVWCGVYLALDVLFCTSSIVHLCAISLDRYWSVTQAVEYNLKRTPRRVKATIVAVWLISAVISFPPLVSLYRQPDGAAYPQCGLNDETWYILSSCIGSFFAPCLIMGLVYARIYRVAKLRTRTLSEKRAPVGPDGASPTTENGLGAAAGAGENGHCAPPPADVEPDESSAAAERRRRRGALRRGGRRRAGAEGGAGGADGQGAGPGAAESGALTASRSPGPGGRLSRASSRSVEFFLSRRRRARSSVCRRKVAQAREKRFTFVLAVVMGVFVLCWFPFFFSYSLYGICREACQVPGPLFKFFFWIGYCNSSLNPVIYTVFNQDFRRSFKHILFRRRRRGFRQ
Description: as §1

Beta1 = Beta1 (Homo sapiens, UniProt P08588); assay: PDSP radioligand binding, adrenoceptor ß1
Sequence of Beta1 (P08588 whole entry): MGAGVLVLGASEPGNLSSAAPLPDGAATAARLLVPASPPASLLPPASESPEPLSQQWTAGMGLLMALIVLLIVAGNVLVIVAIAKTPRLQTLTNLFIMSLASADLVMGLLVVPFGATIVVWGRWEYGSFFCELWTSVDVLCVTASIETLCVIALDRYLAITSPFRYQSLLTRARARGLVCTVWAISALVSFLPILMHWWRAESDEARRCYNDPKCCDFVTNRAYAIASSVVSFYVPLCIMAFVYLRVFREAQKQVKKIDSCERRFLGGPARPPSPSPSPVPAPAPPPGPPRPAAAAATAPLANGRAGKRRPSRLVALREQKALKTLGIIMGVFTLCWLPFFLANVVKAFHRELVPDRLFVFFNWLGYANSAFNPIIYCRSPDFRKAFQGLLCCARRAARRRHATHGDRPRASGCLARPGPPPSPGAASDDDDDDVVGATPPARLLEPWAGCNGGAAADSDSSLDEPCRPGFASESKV
Description: as §1

BZP Rat Brain Site = assay: PDSP radioligand binding, benzodiazepine site on GABA-A; details: Table S1; unit inferred
Description: as §1

hDAT = hDAT (Homo sapiens, UniProt Q01959); assay: PDSP radioligand binding, dopamine transporter
Sequence of hDAT (Q01959 whole entry): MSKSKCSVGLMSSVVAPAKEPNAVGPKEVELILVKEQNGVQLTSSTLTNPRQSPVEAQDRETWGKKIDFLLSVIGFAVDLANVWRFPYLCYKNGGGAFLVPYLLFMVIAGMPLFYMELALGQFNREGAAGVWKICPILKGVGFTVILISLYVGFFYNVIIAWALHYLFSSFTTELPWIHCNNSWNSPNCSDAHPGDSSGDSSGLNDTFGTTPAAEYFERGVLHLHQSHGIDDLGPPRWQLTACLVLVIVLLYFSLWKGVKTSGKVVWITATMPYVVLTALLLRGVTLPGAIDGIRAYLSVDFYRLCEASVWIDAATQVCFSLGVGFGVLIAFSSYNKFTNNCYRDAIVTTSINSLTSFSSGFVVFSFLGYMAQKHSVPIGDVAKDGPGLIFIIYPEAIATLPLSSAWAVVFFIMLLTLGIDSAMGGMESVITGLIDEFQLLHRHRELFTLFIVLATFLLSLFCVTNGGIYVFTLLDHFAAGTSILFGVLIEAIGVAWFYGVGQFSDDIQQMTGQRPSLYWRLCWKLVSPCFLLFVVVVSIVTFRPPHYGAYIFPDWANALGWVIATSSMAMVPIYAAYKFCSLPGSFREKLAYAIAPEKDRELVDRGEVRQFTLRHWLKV
Description: as §1

GABAB = GABAB (Homo sapiens, UniProt Q9UBS5); assay: PDSP radioligand binding, GABA-B
Description: as §1

H1 = H1 (Homo sapiens, UniProt P35367); assay: PDSP radioligand binding, histamine receptor H1
Sequence of H1 (P35367 whole entry): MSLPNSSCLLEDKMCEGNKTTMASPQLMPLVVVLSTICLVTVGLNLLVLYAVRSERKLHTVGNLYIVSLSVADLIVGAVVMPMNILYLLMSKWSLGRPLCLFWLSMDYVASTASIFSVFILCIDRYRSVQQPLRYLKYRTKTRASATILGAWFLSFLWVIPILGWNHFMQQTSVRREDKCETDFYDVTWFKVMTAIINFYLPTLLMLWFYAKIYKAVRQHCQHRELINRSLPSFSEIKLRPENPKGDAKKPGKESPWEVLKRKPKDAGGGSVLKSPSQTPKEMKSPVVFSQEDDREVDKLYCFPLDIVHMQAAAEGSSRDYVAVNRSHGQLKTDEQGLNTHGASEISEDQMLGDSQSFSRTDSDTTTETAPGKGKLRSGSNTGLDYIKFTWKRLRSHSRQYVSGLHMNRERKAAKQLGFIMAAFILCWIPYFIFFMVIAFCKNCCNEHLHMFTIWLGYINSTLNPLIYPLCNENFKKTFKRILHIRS
Description: as §1

M2 = molecular target: T4, M2 (Homo sapiens, UniProt P08172); assay: PDSP radioligand binding, muscarinic receptor M2
T4 sequence (P08172 1-466): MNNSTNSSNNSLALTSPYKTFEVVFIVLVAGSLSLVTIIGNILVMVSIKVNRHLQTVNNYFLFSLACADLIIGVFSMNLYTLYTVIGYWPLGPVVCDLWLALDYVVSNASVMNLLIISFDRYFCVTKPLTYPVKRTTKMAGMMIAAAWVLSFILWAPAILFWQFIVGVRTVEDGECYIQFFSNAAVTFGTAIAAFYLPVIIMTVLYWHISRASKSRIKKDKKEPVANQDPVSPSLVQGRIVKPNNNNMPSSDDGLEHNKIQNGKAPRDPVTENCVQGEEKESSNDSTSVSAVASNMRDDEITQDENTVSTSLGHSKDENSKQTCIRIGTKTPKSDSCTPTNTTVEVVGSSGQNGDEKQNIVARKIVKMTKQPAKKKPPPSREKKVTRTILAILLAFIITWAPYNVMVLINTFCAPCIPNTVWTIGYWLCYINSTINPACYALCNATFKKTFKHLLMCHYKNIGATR
Description: as §1

M3 = M3 (Homo sapiens, UniProt P20309); assay: PDSP radioligand binding, muscarinic receptor M3
Description: as §1

MOR = MOR (Homo sapiens, UniProt P35372); assay: PDSP radioligand binding, opioid receptor MOR
Sequence of MOR (P35372 whole entry): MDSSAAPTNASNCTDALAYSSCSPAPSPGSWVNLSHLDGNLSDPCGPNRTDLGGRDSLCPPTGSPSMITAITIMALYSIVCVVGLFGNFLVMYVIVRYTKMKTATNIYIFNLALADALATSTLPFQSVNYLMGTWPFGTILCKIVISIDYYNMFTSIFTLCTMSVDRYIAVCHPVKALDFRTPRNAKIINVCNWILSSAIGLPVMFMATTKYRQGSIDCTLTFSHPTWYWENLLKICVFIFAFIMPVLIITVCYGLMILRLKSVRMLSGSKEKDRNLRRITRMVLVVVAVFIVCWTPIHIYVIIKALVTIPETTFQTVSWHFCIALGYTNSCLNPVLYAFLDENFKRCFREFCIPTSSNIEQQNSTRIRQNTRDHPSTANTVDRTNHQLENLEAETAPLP
Description: as §1

Sigma1 = Sigma1 (Homo sapiens, UniProt Q99720); assay: PDSP radioligand binding, Sigma1
Sequence of Sigma1 (Q99720 whole entry): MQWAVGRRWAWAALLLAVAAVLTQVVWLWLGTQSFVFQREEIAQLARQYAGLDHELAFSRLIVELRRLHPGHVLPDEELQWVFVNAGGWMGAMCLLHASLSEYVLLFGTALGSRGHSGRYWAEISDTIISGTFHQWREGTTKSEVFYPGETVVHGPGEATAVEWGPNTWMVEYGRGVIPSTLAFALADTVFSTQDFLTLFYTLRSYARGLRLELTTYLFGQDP
Description: as §1

Sequence of 5-HT1B (P28222 whole entry, species assumed): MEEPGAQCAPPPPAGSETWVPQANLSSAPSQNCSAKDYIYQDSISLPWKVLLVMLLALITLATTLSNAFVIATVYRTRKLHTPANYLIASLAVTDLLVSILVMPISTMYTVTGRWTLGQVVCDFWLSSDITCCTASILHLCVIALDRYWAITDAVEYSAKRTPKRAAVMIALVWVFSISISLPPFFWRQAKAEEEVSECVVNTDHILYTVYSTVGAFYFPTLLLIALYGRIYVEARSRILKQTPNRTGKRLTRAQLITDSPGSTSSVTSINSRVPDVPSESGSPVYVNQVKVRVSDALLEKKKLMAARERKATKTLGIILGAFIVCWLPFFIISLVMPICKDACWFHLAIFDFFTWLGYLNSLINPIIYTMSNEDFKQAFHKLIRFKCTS
Sequence of 5-ht5a (P47898 whole entry, species assumed): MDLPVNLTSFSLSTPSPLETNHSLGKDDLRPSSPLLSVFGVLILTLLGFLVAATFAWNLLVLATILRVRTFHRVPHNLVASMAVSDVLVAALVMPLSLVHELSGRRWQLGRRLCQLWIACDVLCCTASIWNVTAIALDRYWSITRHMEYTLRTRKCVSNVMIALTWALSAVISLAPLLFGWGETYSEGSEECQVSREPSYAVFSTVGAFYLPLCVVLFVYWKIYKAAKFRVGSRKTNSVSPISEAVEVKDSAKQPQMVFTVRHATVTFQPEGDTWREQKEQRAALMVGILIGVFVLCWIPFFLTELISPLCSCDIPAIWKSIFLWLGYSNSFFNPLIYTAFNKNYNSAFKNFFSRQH

| Structure (SMILES) | Ki (5-HT1B) [µM] | Ki (5-ht5a) [µM] | Ki (A2B2) [µM] | Ki (A3B4) [µM] | Ki (Alpha1B) [µM] | Ki (Alpha2A) [µM] | Ki (Alpha2C) [µM] | Ki (Beta1) [µM] | Ki (BZP Rat Brain Site) [µM] | Ki (hDAT) [µM] | Ki (GABAB) [µM] | Ki (H1) [µM] | Ki (M2) [µM] | Ki (M3) [µM] | Ki (MOR) [µM] | Ki (Sigma1) [µM] | inhibition at 10 µM (Sigma1; 10 µM, quadruplicate, read-out: Sigma1 Primary Screen inhibition of binding) [%] |
| --- | --- | --- | --- | --- | --- | --- | --- | --- | --- | --- | --- | --- | --- | --- | --- | --- | --- |
| CCNC1(c2cccc(OC)c2)CCCCC1=O (racemic) [Methoxetamine, (RS)-2-(ethylamino)-2-(3-methoxyphenyl)cyclohexanone] | > 10 | > 10 | > 10 | > 10 | > 10 | > 10 | > 10 | > 10 | > 10 | > 10 | > 10 | 2.96 | > 10 | > 10 | > 10 | > 10 | < 50 |
| COc1cccc(C2(N3CCCCC3)CCCCC2)c1 [3-MeO-PCP, 1-[1-(3-methoxyphenyl)cyclohexyl]piperidine] | > 10 | > 10 | > 10 | > 10 | > 10 | 0.964 | > 10 | > 10 | > 10 | 0.743 | > 10 | > 10 | > 10 | > 10 | > 10 | 0.042 |  |
| COc1ccc(C2(N3CCCCC3)CCCCC2)cc1 [4-MeO-PCP, 1-[1-(4-methoxyphenyl)cyclohexyl]piperidine] | > 10 | > 10 | > 10 | > 10 | > 10 | > 10 | > 10 | > 10 | > 10 | > 10 | > 10 | > 10 | > 10 | > 10 | > 10 | 0.296 |  |
